Measurements as given in patent US20230265151A1, “GIP/GLP1 CO-AGONIST COMPOUNDS” (priority 2020, published 2023).
Like-named read-outs stand apart in the source and are kept apart here. *1 amine or outer side, *2 acyl side, *3 side chain or, on linkers, in order; H or OH if unused. Where a SMILES comes first, the peptide text is derived from it. Side-chain parts run from the residue outwards. [ ]: non-standard residue; d: D form. The star is where a group is joined. αMePhe(2-F) = C[C@](N)(Cc1ccccc1F)C(=O)O; γGlu = O=C(O)[C@H](CCC(=O)[*:2])N[*:1]; C14 diacid = O=C(O)CCCCCCCCCCCCC(=O)*; αMeY = C[C@](N)(Cc1ccc(O)cc1)C(=O)O; αMeL = CC(C)C[C@](C)(N)C(=O)O; Orn = NCCC[C@H](N)C(=O)O; AEEA = NCCOCCOCC(=O)O; Aib = CC(C)(N)C(=O)O

How the values were obtained:
Format in all cases: cell-based
hGIPR = target: T1, hGIPR (Homo sapiens, UniProt P48546); assay: Functional cAMP formation (HTRF) in HEK-293 clonal cells expressing hGIPR, 0.1% bovine casein, without or with 1.0% human serum albumin; settings: 37° C.; for Emax: HEK293, cAMP, percent of maximal response to GIP(1-42)NH2, read-out: hGIPR Emax, % ± SEM; for EC50: geometric mean, read-out: hGIPR EC50, nM (SEM, n)
T1 construct: expressed in transfected cells
T1 sequence (P48546 22-466): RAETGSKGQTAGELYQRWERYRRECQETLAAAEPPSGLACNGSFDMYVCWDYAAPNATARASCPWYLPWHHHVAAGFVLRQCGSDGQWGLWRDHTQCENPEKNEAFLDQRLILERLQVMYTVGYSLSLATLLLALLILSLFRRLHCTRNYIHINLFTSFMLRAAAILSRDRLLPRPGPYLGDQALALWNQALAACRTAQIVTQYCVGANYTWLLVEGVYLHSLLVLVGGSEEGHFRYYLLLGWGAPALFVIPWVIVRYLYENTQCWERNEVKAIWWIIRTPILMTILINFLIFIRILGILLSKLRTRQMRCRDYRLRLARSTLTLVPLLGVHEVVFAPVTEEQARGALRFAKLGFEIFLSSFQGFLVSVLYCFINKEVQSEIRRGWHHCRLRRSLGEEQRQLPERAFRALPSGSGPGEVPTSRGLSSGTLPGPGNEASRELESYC
How it was run: (§1)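 Readings of the HTRF 665/620 nm ratio, which falls as cAMP rises, were converted to nM cAMP using a standard curve after 30 min peptide exposure at 37° C.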

hGCGR = target: T2, hGCGR (Homo sapiens, UniProt P47871); assay: Functional cAMP formation (HTRF) in HEK-293 clonal cells expressing hGCGR, 0.1% bovine casein, without or with 1.0% human serum albumin; settings: 37° C., read-out: hGCGR EC50, nM (SEM, n)
T2 construct: expressed in transfected cells
How it was run: as §1

hGLP-1R = hGLP-1R (Homo sapiens, UniProt P43220); assay: Functional cAMP formation (HTRF) in HEK-293 clonal cells expressing hGLP-1R, 0.1% bovine casein, without or with 1.0% human serum albumin; parameters: expressed in transfected cells; settings: 37° C.; for Emax: percent of maximal response to GLP-1(7-36)NH2, read-out: hGLP-1R Emax, % ± SEM; for EC50: cAMP, read-out: hGLP-1R EC50, nM (SEM, n)
How it was run: as §1

[1] = 0.1% bovine casein and 1.0% human serum albumin
[2] = 0.1% bovine casein, arithmetic mean
[3] = cAMP, 0.1% bovine casein (no human serum albumin)
[4] = cAMP, 0.1% bovine casein (no human serum albumin), geometric mean
[5] = cAMP, 0.1% bovine casein and 1.0% human serum albumin, geometric mean (SEM, n)
[6] = HEK293, cAMP, 0.1% bovine casein and 1.0% human serum albumin
[7] = 0.1% bovine casein (no human serum albumin), geometric mean
[8] = HEK293, cAMP, 0.1% bovine casein, arithmetic mean

T2 sequence (P47871 26-477): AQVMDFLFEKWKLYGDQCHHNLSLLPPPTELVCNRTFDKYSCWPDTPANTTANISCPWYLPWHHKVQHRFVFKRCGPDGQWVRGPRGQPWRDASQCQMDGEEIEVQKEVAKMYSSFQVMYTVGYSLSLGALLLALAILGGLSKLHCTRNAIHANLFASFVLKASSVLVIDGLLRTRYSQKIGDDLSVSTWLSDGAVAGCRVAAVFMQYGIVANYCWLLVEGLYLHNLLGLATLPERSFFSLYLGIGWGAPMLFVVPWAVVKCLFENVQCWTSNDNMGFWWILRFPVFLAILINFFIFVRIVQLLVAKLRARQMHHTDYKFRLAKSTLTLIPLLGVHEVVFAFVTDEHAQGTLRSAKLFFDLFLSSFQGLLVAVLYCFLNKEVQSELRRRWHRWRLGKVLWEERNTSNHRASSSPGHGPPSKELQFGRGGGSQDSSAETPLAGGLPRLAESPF
hGLP-1R, sequence (P43220 24-463): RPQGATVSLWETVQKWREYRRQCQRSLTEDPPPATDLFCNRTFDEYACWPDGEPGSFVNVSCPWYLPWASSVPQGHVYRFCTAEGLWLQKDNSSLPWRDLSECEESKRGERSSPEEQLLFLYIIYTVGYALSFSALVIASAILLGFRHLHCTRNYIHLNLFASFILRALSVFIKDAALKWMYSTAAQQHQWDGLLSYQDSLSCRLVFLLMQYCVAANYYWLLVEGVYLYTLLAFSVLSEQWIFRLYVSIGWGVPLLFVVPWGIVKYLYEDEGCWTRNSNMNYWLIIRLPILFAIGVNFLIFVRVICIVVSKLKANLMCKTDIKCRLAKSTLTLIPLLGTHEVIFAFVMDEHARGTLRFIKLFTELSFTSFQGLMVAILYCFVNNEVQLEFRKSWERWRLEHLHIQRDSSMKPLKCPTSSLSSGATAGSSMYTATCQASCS

| Structure (SMILES) | Emax (hGIPR; [1]) [%] | Emax (hGIPR; [2]) [%] | EC50 (hGIPR; [3]) [nM] | EC50 (hGCGR; [4]) [nM] | EC50 (hGCGR; [5]) [nM] | Emax (hGLP-1R; [6]) [%] | EC50 (hGLP-1R; [7]) [nM] | EC50 (hGLP-1R; 0.1% bovine casein and 1.0% human serum albumin, geometric mean (SEM, n)) [nM] | Emax (hGLP-1R; [8]) [%] | EC50 (hGIPR; [1]) [nM] | EC50 (hGCGR; 0.1% bovine casein and 1.0% human serum albumin, geometric mean) [nM] | Emax (hGLP-1R; HEK293, 0.1% bovine casein and 1.0% human serum albumin) [%] |
| --- | --- | --- | --- | --- | --- | --- | --- | --- | --- | --- | --- | --- |
| CC[C@H](C)[C@H](NC(=O)[C@H](CC(C)C)NC(=O)[C@](C)(Cc1ccc(O)cc1)NC(=O)[C@H](CCCCNC(=O)COCCOCCNC(=O)COCCOCCNC(=O)CC[C@H](NC(=O)CCCCCCCCCCCCC(=O)O)C(=O)O)NC(=O)[C@@H](NC(=O)[C@H](Cc1ccccc1)NC(=O)[C@H](Cc1ccncc1)NC(=O)C(C)(C)NC(=O)[C@H](CCC(N)=O)NC(=O)[C@H](C)NC(=O)[C@H](CCC(N)=O)NC(=O)[C@H](CCCN)NC(=O)[C@H](CC(=O)O)NC(=O)[C@H](CC(C)C)NC(=O)[C@](C)(CC(C)C)NC(=O)[C@@H](NC(=O)C(C)(C)NC(=O)[C@H](Cc1ccncc1)NC(=O)[C@H](CC(=O)O)NC(=O)[C@H](CO)NC(=O)[C@@H](NC(=O)[C@](C)(Cc1ccccc1F)NC(=O)[C@@H](NC(=O)CNC(=O)[C@H](CCC(=O)O)NC(=O)C(C)(C)NC(=O)[C@@H](N)Cc1ccc(O)cc1)[C@@H](C)O)[C@@H](C)O)[C@@H](C)CC)[C@@H](C)CC)C(=O)N[C@@H](CCCCNC(=O)COCCOCCNC(=O)COCCOCCNC(=O)CC[C@H](NC(=O)CCCCCCCCCCCCC(=O)O)C(=O)O)C(=O)NCC(=O)NCC(=O)N1CCC[C@H]1C(=O)N[C@@H](CO)C(=O)N[C@@H](CO)C(=O)NCC(=O)N[C@@H](C)C(=O)N1CCC[C@H]1C(=O)N1CCC[C@H]1C(=O)N1CCC[C@H]1C(=O)N[C@@H](CO)C(N)=O [Example 444] | 83.6 | 93.6 | 0.0157 | > 9950 | > 9950 | 98.8 | 0.289 | 7.51 | – | – | – | – |
| CC[C@H](C)[C@H](NC(=O)[C@H](CCCN)NC(=O)[C@H](CC(=O)O)NC(=O)[C@H](CC(C)C)NC(=O)[C@](C)(CC(C)C)NC(=O)[C@@H](NC(=O)C(C)(C)NC(=O)[C@@H](NC(=O)[C@H](CC(=O)O)NC(=O)[C@H](CO)NC(=O)[C@@H](NC(=O)[C@](C)(Cc1ccccc1F)NC(=O)[C@@H](NC(=O)CNC(=O)[C@H](CCC(=O)O)NC(=O)C(C)(C)NC(=O)[C@@H](N)Cc1ccc(O)cc1)[C@@H](C)O)[C@@H](C)O)C(C)C)[C@@H](C)CC)C(=O)N[C@@H](C)C(=O)N[C@@H](CCC(N)=O)C(=O)NC(C)(C)C(=O)N[C@@H](CCCCNC(=O)COCCOCCNC(=O)COCCOCCNC(=O)CC[C@H](NC(=O)CCCCCCCCCCCCC(=O)O)C(=O)O)C(=O)N[C@@H](Cc1ccccc1)C(=O)N[C@H](C(=O)N[C@H](CCC(=O)O)C(=O)N[C@@](C)(Cc1ccc(O)cc1)C(=O)N[C@@H](CC(C)C)C(=O)N[C@H](C(=O)N[C@@H](CCCCNC(=O)COCCOCCNC(=O)COCCOCCNC(=O)CC[C@H](NC(=O)CCCCCCCCCCCCC(=O)O)C(=O)O)C(=O)NCC(=O)NCC(=O)N1CCC[C@H]1C(=O)N[C@@H](CO)C(=O)N[C@@H](CO)C(=O)NCC(=O)N[C@@H](C)C(=O)N1CCC[C@H]1C(=O)N1CCC[C@H]1C(=O)N1CCC[C@H]1C(=O)N[C@@H](CO)C(N)=O)[C@@H](C)CC)[C@@H](C)CC [Example 329] | 100 | 109 | 0.015 | > 9950 | > 9950 | 88.3 | 0.353 | – | – | – | – | – |
| CC[C@H](C)[C@H](NC(=O)[C@H](CCCN)NC(=O)[C@H](CC(=O)O)NC(=O)[C@H](CC(C)C)NC(=O)[C@](C)(CC(C)C)NC(=O)[C@@H](NC(=O)C(C)(C)NC(=O)[C@H](Cc1ccc(O)cc1)NC(=O)[C@H](CC(=O)O)NC(=O)[C@H](CO)NC(=O)[C@@H](NC(=O)[C@](C)(Cc1ccccc1F)NC(=O)[C@@H](NC(=O)CNC(=O)[C@H](CCC(=O)O)NC(=O)C(C)(C)NC(=O)[C@@H](N)Cc1ccc(O)cc1)[C@@H](C)O)[C@@H](C)O)[C@@H](C)CC)C(=O)N[C@@H](C)C(=O)N[C@@H](CCC(N)=O)C(=O)NC(C)(C)C(=O)N[C@@H](CCCCNC(=O)COCCOCCNC(=O)CC[C@H](NC(=O)CCCCCCCCCCCCC(=O)O)C(=O)O)C(=O)N[C@@H](Cc1ccccc1)C(=O)N[C@H](C(=O)N[C@H](CCC(=O)O)C(=O)N[C@@](C)(Cc1ccc(O)cc1)C(=O)N[C@@H](CC(C)C)C(=O)N[C@H](C(=O)N[C@@H](CCCCNC(=O)COCCOCCNC(=O)CC[C@H](NC(=O)CCCCCCCCCCCCC(=O)O)C(=O)O)C(=O)NCC(=O)NCC(=O)N1CCC[C@H]1C(=O)N[C@@H](CO)C(=O)N[C@@H](CO)C(=O)NCC(=O)N[C@@H](C)C(=O)N1CCC[C@H]1C(=O)N1CCC[C@H]1C(=O)N1CCC[C@H]1C(=O)N[C@@H](CO)C(N)=O)[C@@H](C)CC)[C@@H](C)CC [Example 370] (H-Y[Aib]EGT[αMePhe(2-F)]TSDY[Aib]I[αMeL]LD[Orn]IAQ[Aib]K([AEEA-γGlu-C14 diacid])FI[dE][αMeY]LIK([AEEA-γGlu-C14 diacid])GGPSSGAPPPS-NH2) | – | 105 | 0.0282 | > 9950 | – | – | 0.402 | – | 112 | – | – | – |
| CC[C@H](C)[C@H](NC(=O)[C@H](CCCN)NC(=O)[C@H](CC(=O)O)NC(=O)[C@H](CC(C)C)NC(=O)[C@](C)(CC(C)C)NC(=O)[C@@H](NC(=O)C(C)(C)NC(=O)[C@H](Cc1ccc(O)cc1)NC(=O)[C@H](CC(=O)O)NC(=O)[C@H](CO)NC(=O)[C@@H](NC(=O)[C@](C)(Cc1ccccc1F)NC(=O)[C@@H](NC(=O)CNC(=O)[C@H](CCC(=O)O)NC(=O)C(C)(C)NC(=O)[C@@H](N)Cc1ccc(O)cc1)[C@@H](C)O)[C@@H](C)O)[C@@H](C)CC)C(=O)N[C@@H](C)C(=O)N[C@@H](CCC(N)=O)C(=O)NC(C)(C)C(=O)N[C@@H](CCCN)C(=O)N[C@@H](Cc1ccccc1)C(=O)N[C@H](C(=O)N[C@@H](CCCCNC(=O)COCCOCCNC(=O)COCCOCCNC(=O)CC[C@H](NC(=O)CCCCCCCCCCCCC(=O)O)C(=O)O)C(=O)N[C@@](C)(Cc1ccc(O)cc1)C(=O)N[C@@H](CC(C)C)C(=O)N[C@H](C(=O)N[C@@H](CCCCNC(=O)COCCOCCNC(=O)COCCOCCNC(=O)CC[C@H](NC(=O)CCCCCCCCCCCCC(=O)O)C(=O)O)C(=O)NCC(=O)NCC(=O)N1CCC[C@H]1C(=O)N[C@@H](CO)C(=O)N[C@@H](CO)C(=O)NCC(=O)N[C@@H](C)C(=O)N1CCC[C@H]1C(=O)N1CCC[C@H]1C(=O)N1CCC[C@H]1C(=O)N[C@@H](CO)C(N)=O)[C@@H](C)CC)[C@@H](C)CC [Example 316] | – | – | 0.0316 | > 9950 | – | – | 0.571 | – | 109 | 1.11 | > 9950 | 113 |
